Values joined by “and” are separate entries in the source; they are usually repeats but may differ in a detail not shown here. Equal values may be shown once.
How the values were obtained:
[1] = system: Healthy subjects, ages 13-18; assay: Stroop Color Word Test; format: in vivo, human; set-up: unit not given here; details: for Stroop Color Trial V1, Mean / Stroop Difference V1, Mean / Stroop Interference Trial V1, Mean / Stroop Word Trial V1, Mean: Visit 1; for V3-V1 Stroop Color Trial, Mean / V3-V1 Stroop Difference, Mean / V3-V1 Stroop Interference Trial, Mean / V3-V1 Stroop Word Trial, Mean: Visit difference score; for Stroop Color Trial V3, Mean / Stroop Difference V3, Mean / Stroop Interference Trial V3, Mean / Stroop Word Trial V3, Mean: Visit 3
Excerpt: (§1) Study participants were screened by telephone prior to study enrollment. Healthy subjects, ages 13-18, with no significant medical conditions and no history of co-morbid psychiatric disorder, current Axis I or II diagnosis, or previous participation in a pharmacotherapeutic trial, were selected. Use of any psychotropic medication or any previous head injury resulting in loss of consciousness for 5 or more minutes were used as exclusion criteria. While no participant met criteria for a neuropsychiatric disorder at enrollment, clinical assessments were still completed throughout the study to evaluate changes in mood state. In addition, self-reports of sleep habits, lifestyle, and exercise routines were also administered at baseline as well as at each study visit to assess changes in health habits during study participation. Following the completion of Visit 1 assessment, participants were given their 28-day supply of citicoline (250 mg or 500 mg) or placebo, which was randomly assigned. They were instructed to take one capsule a day every day for the next 28 days. Visit 2 occurred fourteen days after Visit 1. At Visit 2, the remaining study pills were counted and participant dosage calendars were checked to ensure compliance with the protocol. Additional neuropsychological measures and clinical assessments were administered during this visit. Participants returned for Visit 3 fourteen days later, on the 28th day of their study participation. The pill bottle and the dosage calendar were collected from each participant. Urine and blood were again obtained. Participants also participated in similar clinical and neuropsychological testing and clinical measures that were given during visit 1. The Stroop measures the ability to inhibit incorrect responses and to resist interference. The three conditions, Color Naming, Word Reading, and Interference, are designed to establish competing response tendencies. Outcome variables include time to complete each condition, as well as total errors per condition. The Stroop test was administered at each of the three visits.

[2] = system: Healthy subjects, ages 13-18; assay: Continuous Performance Test (CPT); format: in vivo, human; details: for CPT Commissions V1, Mean / CPT Omissions V1, Mean / CPT Hit Reaction Time V1, Mean: Visit 1
Excerpt: as §1, with “CPT is a test of sustained attention that has been adapted for computerized administration. The test requires participants” for “Stroop measures the ability”, “attend vigilantly to a series of target” for “inhibit incorrect responses”, “distracter stimuli for a 14-minute duration. […]” for “to resist interference.”, “CPT” for “three conditions, Color Naming, Word Reading, and Interference, are designed to establish competing response tendencies. Outcome variables include time to complete each condition, as well as total errors per condition. The Stroop test”, “all” for “each of the”

[3] = 250 mg/day group, Visit difference score
[4] = 250 mg/day group, Visit 3, in ms (unit assumed)
[5] = 250 mg/day group, visit difference score V3-V1
[6] = 500 mg/day group, Visit difference score

## C[N+](C)(C)CCOP(=O)(O)OP(=O)([O-])OC[C@H]1O[C@@H](n2ccc(N)nc2=O)[C@H](O)[C@@H]1O [citicoline, Cytidine 5′-diphosphocholine]
[1]; 250 mg/day group
  Stroop Color Trial V1, Mean: 61.05
  Stroop Difference V1, Mean: 43.53
  Stroop Interference Trial V1, Mean: 91.85
  Stroop Word Trial V1, Mean: 48.32
  V3-V1 Stroop Color Trial, Mean: -7.71
  V3-V1 Stroop Difference, Mean: -17.53
  V3-V1 Stroop Interference Trial, Mean: -19.03
  V3-V1 Stroop Word Trial, Mean: -1.98
  Stroop Color Trial V3, Mean: 53.34 and 53.35
  Stroop Difference V3, Mean: 26.00
  Stroop Interference Trial V3, Mean: 72.82
  Stroop Word Trial V3, Mean: 46.34
[1]; 500 mg/day group
  Stroop Color Trial V1, Mean: 60.12
  Stroop Difference V1, Mean: 44.93
  Stroop Interference Trial V1, Mean: 91.62
  Stroop Word Trial V1, Mean: 46.69
  V3-V1 Stroop Color Trial, Mean: -5.77
  V3-V1 Stroop Difference, Mean: -15.55
  V3-V1 Stroop Interference Trial, Mean: -16.95
  V3-V1 Stroop Word Trial, Mean: -1.40
  Stroop Color Trial V3, Mean: 54.35
  Stroop Difference V3, Mean: 29.38
  Stroop Interference Trial V3, Mean: 74.68
  Stroop Word Trial V3, Mean: 45.30
[2]; 250 mg/day group
  CPT Commissions V1, Mean: 18.22
  CPT Omissions V1, Mean: 9.59
[2]; 250 mg/day group, in ms (unit assumed)
  CPT Hit Reaction Time V1, Mean: 362.62
[2]; [3]
  V3-V1 CPT Commissions, Mean: -1.26
  V3-V1 CPT Omissions, Mean: 4.93
[2]; 250 mg/day group, Visit difference score, in ms (unit assumed)
  V3-V1 CPT Hit Reaction Time, Mean: 34.57
[2]; 250 mg/day group, Visit 3
  CPT Commissions V3, Mean: 16.96
  CPT Omissions V3, Mean: 14.52
  V3 CPT Commissions (Mean): 16.96
  V3 CPT Omissions (Mean): 14.52
[2]; [4]
  CPT Hit Reaction Time V3, Mean: 397.19
  V3 CPT Hit Reaction Time (Mean): 397.19
[2]; [5]
  V3-V1 CPT Commissions, Mean: -1.26
  V3-V1 CPT Omissions, Mean: 4.93
[2]; 250 mg/day group, visit difference score V3-V1, in ms (unit assumed)
  V3-V1 CPT Hit Reaction Time, Mean: 34.57
[2]; 500 mg/day group
  CPT Commissions V1, Mean: 18.79
  CPT Omissions V1, Mean: 8.42
[2]; 500 mg/day group, in ms (unit assumed)
  CPT Hit Reaction Time V1, Mean: 363.58
[2]; 500 mg/day group, Visit 3, in ms (unit assumed)
  CPT Hit Reaction Time V3, Mean: 391.30
[2]; [6]
  V3-V1 CPT Commissions, Mean: -3.88
  V3-V1 CPT Omissions, Mean: 5.33
[2]; 500 mg/day group, Visit difference score, in ms (unit assumed)
  V3-V1 CPT Hit Reaction Time, Mean: 27.71
[2]; 500 mg/day group, Visit 3
  CPT Commissions V3, Mean: 14.92
  CPT Omissions V3, Mean: 13.75

Source: patent US20230181614A1, “ADMINISTRATION OF CITICOLINE TO IMPROVE COGNITIVE PERFORMANCE, ATTENTIONAL PERFORMANCE, AND MOTOR FUNCTION” (KYOWA HAKKO BIO CO., LTD., priority 2014, published 2023)
